According to US20230138246A1, “USE OF DIHYDROBERBERINE OR ITS DERIVATIVES FOR ANTI-AGING” (NANJING NUTRABUILDING BIO-TECH CO., LTD., priority 2021, published 2023):

Legend:
lamin A [1] = assay: lamin A protein level by western blot in 2DD cells; format: cell-based, human; details: 5 μmol/L DHB
Description: (§1) Whole-cell lysates of AG01972 cells and 2DD cells were collected, separated by SDS polyacrylamide gel electrophoresis, and transferred onto polyvinylidene fluoride membrane using the liquid transfer method. The blots were blocked in 10% skim milk in Tween 0.1% tris-buffered saline 1×1 h at room temperature. The membranes were incubated during the night at 4° C. Antigen-antibody binding was detected using horseradish peroxidase-conjugated species-specific secondary antibodies, followed by enhanced chemiluminescence western blotting detection reagents. The western blot results were quantified using ImageJ software. FIG. 2a is a graph of protein levels of lamin A and progerin in AG01972 cells of DHB supplemented group and non-supplemented group. FIG. 2b is a graph of protein levels of lamin A and progerin in 2DD cells of DHB supplemented group and non-supplemented group.

lamin A [2] = assay: lamin A mRNA expression by quantitative PCR in AG01972 cells; format: cell-based, human; details: 48 h
Description: (§2) The AG01972 primary HGPS cell line was obtained from Coriell Cell Repositories (New Jersey, USA). Human dermal fibroblasts (HDF) were isolated from juvenile foreskins and termed 2DD was also used. AG01972 cells were cultured in T75 tissue culture treated flasks (Fisher, UK) containing Dulbecco's […]+Glutamax (Invitrogen, UK), supplemented with 15% fetal calf serum and 1% penicillin/streptomycin (Invitrogen) in an humidified, 37° C., 5% CO2/95% air incubator. The cells were passaged twice weekly. Cells were plated at a density of 2×10^5 into 9 cm dishes containing 13 mm diameter glass coverslips. Six hours after seeding, the AG01972 cells were treated with 0.1% dimethyl sulfoxide, different concentrations of DHB. DHB treatment was repeated 24 h after the initial treatment. The cells were analyzed after 48 h of treatment.
(§3) Total RNA was isolated using a RNeasy Micro extraction kit according to the manufacturer's protocol. An on-column DNase I digestion was performed to avoid genomic DNA amplification. […] The quantitative PCR analysis was performed following the manufacturers' instructions.
(§4) Quantification of gene expression was based on the DeltaCt Method and normalized on 18S expression. […]
(§5) The protein levels of A-type lamins and mRNA expressions of lamin A and progerin were measured 48 h after DHB treatment on AG01972 cells. […]

[3] = compared with berberine (BBR), Feng et al. 2015; cited from earlier work
progerin [4] = assay: progerin protein level by western blot in AG01972 cells; format: cell-based, human; details: 5 μmol/L DHB
Description: as §1

lamin A [5] = assay: lamin A protein level by western blot in AG01972 cells; format: cell-based, human; details: 5 μmol/L DHB
Description: as §1

lamin A [6] = assay: lamin A mRNA expression by quantitative PCR in 2DD cells; format: cell-based, human; details: 5 μmol/L DHB
Description: as §2, §3, §4, §5

WI38 cells = assay: cell proliferation (CCK-8) of PD45 WI38 cells; format: cell-based, human
Description: (§6) Human diploid fibroblast 2BS and WI38 cells were isolated from fetal lung fibroblast tissue. These cell lines were purchased from commercially available sources. Cells were grown in Dulbecco's Modification Eagle's Minimum Essential Medium (DMEM, Life Technologies Inc.) supplemented with 10% fetal bovine serum (FBS; Gibco), 2 mm glutamine, 100 U/ml penicillin, and 100 μg/ml streptomycin, in a humidified atmosphere with 5% CO2 at 37° C. These cells were considered as young at PD30 or below and fully senescent at PD50 or above Cell proliferation was assayed using the CCK-8 method. […] The absorbance values of each well were measured at day 0 (4 h after plating) and on days 1, 2, 3, 4, 5, and 6. […] At the indicated points, cells were harvested with 10% CCK-8 for one hour, and the absorbance was measured at 490 nm. Each data point was measured five times, and each curve was repeated more than three times. […] FIG. 3a is a graph of effect of DHB at different concentrations on the proliferation of PD45 2BS cells and WI38 cells measured by […]. […] FIG. 3d is a graph of quantification of SA-β-gal-positive cell rate of 2BS cells. Quantification analysis of SA-β-gal in FIG. 3d is shown that DHB (about 9%) could delay or reverse the population senescence of 2BS cells remarkably, as compared to the PD 45-DMEM group (about 55%) and PD 45 group (about 60%).

progerin [7] = assay: progerin mRNA expression by quantitative PCR in AG01972 cells; format: cell-based, human; details: 48 h
Description: as §2, §3, §4, §5

2BS cells [8] = assay: cell proliferation (CCK-8) of PD45 2BS cells; format: cell-based, human
Description: as §6

2BS cells [9] = assay: senescence-associated β-galactosidase (SA-β-gal) assay in 2BS cells; format: cell-based, human; details: 2BS cells PD45, 0.300 μg/ml DHB; PD 45-DMEM group about 55%, PD 45 group about 60%
Description: Human diploid fibroblast 2BS and WI38 cells were isolated from fetal lung fibroblast tissue. These cell lines were purchased from commercially available sources. Cells were grown in Dulbecco's Modification Eagle's Minimum Essential Medium (DMEM, Life Technologies Inc.) supplemented with 10% fetal bovine serum (FBS; Gibco), 2 mm glutamine, 100 U/ml penicillin, and 100 μg/ml streptomycin, in a humidified atmosphere with 5% CO2 at 37° C. These cells were considered as young at PD30 or below and fully senescent at PD50 or above Senescence-associated β-galactosidase (SA-β-gal) assay: 2B S cells (PD45) grown in DMEM with/without 0.300 μg/ml DHB concentration were stained according to the method of Dimri with minor modifications (Dimri, Lee et al. 1995). […] The average value of the percentage of SA-β-gal-positive cells for each set of samples was calculated based on three independent experiments. […] FIG. 3a is a graph of effect of DHB at different concentrations on the proliferation of PD45 2BS cells and WI38 cells measured by MTT-assay. […] FIG. 3d is a graph of quantification of SA-β-gal-positive cell rate of 2BS cells. Quantification analysis of SA-β-gal in FIG. 3d is shown that DHB (about 9%) could delay or reverse the population senescence of 2BS cells remarkably, as compared to the PD 45-DMEM group (about 55%) and PD 45 group (about 60%).

[10] = different concentrations of DHB, normalized on 18S

SMILES: COc1ccc2c(c1OC)CN1CCc3cc4c(cc3C1=C2)OCO4 [DHB, Dihydroberberine]
- lamin A protein level (western blot) compared with untreated cells (lamin A [1]): decrease in lamin A
- concentration of maximum effect on lamin A mRNA expression (lamin A [2]): 5 µmol/L
- lamin A mRNA expression compared with untreated cells (lamin A [2]; [10]): dose-dependent decrease
- absorption [3]: improved absorption
- oral bioavailability [3]: enhanced oral bioavailability
- progerin protein content (western blot) compared with untreated cells (progerin [4]): significant decrease in progerin content
- lamin A protein level (western blot) compared with untreated cells (lamin A [5]): decrease in lamin A
- lamin A mRNA expression (lamin A [6]): decrease in lamin A mRNA expression
- optimum concentration for proliferation (WI38 cells; PD45 WI38 cells, FIG. 3a): 0.3 µg/mL
- effect on proliferation, time course (WI38 cells; WI38 (PD45) cells, 0.3 μg/ml, seven days of incubation): promoted proliferation
- concentration of maximum effect on progerin mRNA expression (progerin [7]): 5 µmol/L
- progerin mRNA expression compared with untreated cells (progerin [7]; [10]): dose-dependent decrease
- effect on proliferation, time course (2BS cells [8]; 2BS (PD45) cells, 0.3 μg/ml, seven days of incubation): promoted proliferation
- optimum concentration for proliferation (2BS cells [8]; PD45 2BS cells, FIG. 3a): 0.3 µg/mL
- SA-β-gal-positive cell rate (2BS cells [9]): about 9%
